Results published in patent US20170027902A1, “Use of a Composition Comprising a Flavonol, A Flavonoid, and a Fatty Acid in the Treatment of Oxidative Injuries Due to Mitochondrial Dysfunction” (priority 2014, published 2017).

What was measured:
[1] = test system: primary cultures of mouse cortical neurons; assay: Toxicity of high concentrations to cortical neuron cultures; type: cell-based; settings: concentrations of 10 μg/ml or above
[2] = test system: primary mouse cortical cultures; assay: Confocal imaging of calcium transients and mitochondrial membrane potential; type: cell-based; settings: for number of neurons displaying elevated [Ca2+]c / oscillations: 3 μg/ml (~10 μM); for number / frequency of [Ca2+]c oscillations in cortical neurons: Q 3 μg/ml added after pretreatment with E 3 μg/ml
Experimental: Embryonic day 16 timed pregnant CD1 out-bred mice were obtained from Charles River Laboratories (Charles River; QC, Canada). Primary cortical neuron cultures were prepared from cerebral cortices of wild type (WT) CD1 mouse embryos as described previously, with the following modifications. Pregnant CD1 females were heavily anaesthetized with isoflurane vapor (Benson Medical Industries, Inc., Markham, ON) before being euthanized by decapitation. The embryonic day 16 (E16) fetuses were immediately removed from the sacrificed pregnant females by cesarean section and placed in ice-cold Hank's Balanced Salt Solution (HBSS) (GIBCO; Invitrogen, Amarillo, Calif.). The meninges were removed from the brains and cortices were isolated under a dissecting microscope. The cortices from each embryo were placed in individual wells of a 24-well plate (Corning; Lowell, Mass.), containing 1 ml of ice-cold PBS (GIBCO; […] Under sterile conditions, the tissue was briefly minced, transferred to 15 ml sterile conical tubes (Corning; Lowell, Mass.) and centrifuged at 350×g for 3 min at room temperature. The dissecting solution was discarded and the cortical neurons were then dissociated trituration with fire-polished glass pipettes followed by incubating in 1 ml of 0.1% trypsin solution (0.1% w/v trypsin (Invitrogen, Amarillo, Calif.) in PBS with 1 mM Mg^2+ and 13 mM glucose) at 37° C. for 15 min. The trypsinization was inhibited by the addition of 0.5 ml of trypsin inhibitor solution that also contained DNase I (0.06% w/v trypsin inhibitor (Invitrogen; Amarillo, Calif.) and 0.01% DNase I (Invitrogen; […] The tubes were mixed briefly and the cells were centrifuged at 350×g for 3 min at room temperature. The trypsin and inhibitor solutions were discarded and each cell pellet was suspended in 1 ml of cortical neuron plating medium (Neurobasal medium (Invitrogen, Amarillo, Calif.) with 10% fetal bovine serum (GIBCO; Invitrogen; Amarillo, Calif.), 2% B27 supplement, 1 mM L-glutamine, and 1% Gentamycin (Invitrogen; […] Cortical neurons were plated in 96-well plates (Corning; Lowell, Mass.) that were pre-coated with poly-D-lysine (PDL; Sigma-Aldrich; Oakville, ON) according to the procedure described by the manufacturer. Briefly, plates were coated immediately before use with 100 μg/ml PDL for 5-10 min (50 μl/well), washed three times with tissue-culture grade water and left to dry for 2 h before cells were introduced. Cortical neurons were plated at a concentration of 1×10^6 cells/ml (100 µl/well) and medium was completely changed the day after plating to serum-free cortical neuron medium (Neurobasal medium with 2% B27 supplement, 5 mM HEPES, 0.5 mM L-glutamine, and 20 μg/ml Gentamycin), which was replaced every 3 days in culture. Cultures were maintained in a humidified, 37° C. incubator with 5% CO2. Experiments were performed on the eighth day in vitro (DIV10). For measurements of mitochondrial membrane potential (ΔΨm), cells were loaded with 25 nM tetrannethylrhodamine methyl ester (TMRM) for 30 min at room temperature and the dye was present during the experiment. TMRM is used in the redistribution mode to assess ΔΨm with a reduction in TMRM fluorescence indicating mitochondrial depolarization. Neurons were loaded for 30 min at room temperature with X-rhod-1 AM (0.5 μM) and Fluo-3 AM (0.5 μM) (Molecular Probes, Invitrogen) prior to imaging in HEPES-buffered salt solution (HBSS) composed of (mM): 156 NaCl, 3 KCl, 2 MgSO4, 1.25 KH2PO4, 2 CaCl2, 10 glucose and 10 HEPES, pH adjusted to 7.35 with NaOH. Confocal images were obtained using a 510 CLSM (Zeiss, Thornwood, N.Y.) equipped with a META detection system and a […] oil-immersion objective. The 488 nm Argon laser line was used to excite fluo-3 fluorescence, which was measured using a bandpass filter from 505 to 550 nm. Illumination intensity was kept to a minimum (at 0.1-0.2% of laser output) to avoid phototoxicity and the pinhole was set to give an optical slice of 2 μm. […]

[3] = ten minutes after addition, fluo-3
[4] = sequential addition of 0.3 and 1 μM

| SMILES | toxicity to primary cultures of mouse cortical neurons [1] | [Ca2+]c oscillations in a cortical neuron ([2]; 3 μg/ml (~10 μM) alone) | [Ca2+]m (mitochondrial) oscillations, x-rhod-1 ([2]; 3 μg/ml (~10 μM) alone) | [Ca2+]c oscillations in a cortical neuron ([2]; 3 μg/ml (~10 μM) alone, listed as epicatechin) | number of neurons displaying elevated [Ca2+]c / oscillations [2, 3] | number of neurons displaying elevated [Ca2+]c / oscillations ([2]; ten minutes after addition, fluo-3, listed as epicatechin) | number / frequency of [Ca2+]c oscillations in cortical neurons [2] | number of neurons displaying [Ca2+]c oscillations ([2]; 1 μg/ml (~3 μM), ten minutes after addition, fluo-3) | number of neurons displaying [Ca2+]c oscillations ([2]; 1 μg/ml (~3 μM), ten minutes after addition, fluo-3, listed as quercetin) | number of neurons displaying elevated [Ca2+]c / oscillations ([2]; ten minutes after addition, fluo-3, listed as quercetin) | frequency of neuronal [Ca2+]c oscillations ([2]; 1 and 3 μg/ml (~3-10 μM), concentration-dependent) | mitochondrial membrane potential (TMRM) ([2]; 1 and 3 μg/ml (~3 and 10 μM)) | [Ca2+]m (mitochondrial) oscillations, x-rhod-1 ([2]; Q 3 μg/ml added after E 3 μg/ml) | number of neurons displaying [Ca2+]c oscillations ([2]; Q 3 μg/ml added after E 3 μg/ml, ten minutes later) | number of neurons displaying [Ca2+]c oscillations ([2]; Q 3 μg/ml added after E 3 μg/ml, ten minutes later, listed as quercetin) | [Ca2+]c oscillations (fluo-4) [2, 4] | basal [Ca2+]c [2, 4] | mitochondrial membrane potential (TMRM) [2, 4] |
| --- | --- | --- | --- | --- | --- | --- | --- | --- | --- | --- | --- | --- | --- | --- | --- | --- | --- | --- |
| Oc1cc(O)c2c(c1)O[C@H](c1ccc(O)c(O)c1)[C@H](O)C2 [E, (2R,3R)-2-(3,4-dihydroxyphenyl)-3,4-dihydro-2H-chromene-3,5,7-triol] | increasingly toxic | did not trigger | did not trigger | did not increase | no change | did not increase | enhanced the frequency | – | – | – | – | – | – | – | – | – | – | – |
| O=c1c(O)c(-c2ccc(O)c(O)c2)oc2cc(O)cc(O)c12 [Q] | increasingly toxic | – | – | – | further elevation | – | supra-additive increase | small increase | increased | increased | increased the frequency | modestly elevated | induction | did increase | increased | concentration dependent stimulation | moderate rise | elevation |
